Experimental data taken from ChEMBL document CHEMBL1201862, “PubChem BioAssay data set” (2004).
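In this assay, cells in 96-well plates receive the compound at five concentrations for 48 hours. Endpoints are linearly interpolated between the surrounding concentrations. GI50 marks 50% less growth.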 The source made the active and inactive calls. Cut-off read from the data, not from the text of the source: active = GI50 up to about 1.1 µM and inactive = higher.

How the values were obtained:
Experiment in all cases: NCI anticancer screen, dose series, 48 h
[1] = tested on: SW-620
[2] = tested on: OVCAR-8
[3] = tested on: SN12C
[4] = tested on: A549
[5] = tested on: U-251
[6] = tested on: NCI-H23
[7] = tested on: KM12
[8] = tested on: DU-145
[9] = tested on: 786-0
[10] = tested on: MDA-MB-231
[11] = tested on: TK-10
[12] = tested on: T47D
[13] = tested on: Hs-578T
[14] = tested on: UACC-62
[15] = tested on: EKVX
[16] = tested on: SK-MEL-28
[17] = tested on: SF-295
[18] = tested on: SR
[19] = tested on: NCI-H226
[20] = tested on: IGROV-1

Compound | GI50 [1] | GI50 [2] | GI50 [3] | GI50 [4] | GI50 [5] | GI50 [6] | GI50 [7] | GI50 [8] | GI50 [9] | GI50 [10] | GI50 [11] | GI50 [12] | GI50 [13] | GI50 [14] | GI50 [15] | GI50 [16] | GI50 [17] | GI50 [18] | GI50 [19] | GI50 [20]
Cn1c(=O)c2nc(SCCN3CCOCC3)[nH]c2n(C)c1=S | > 100 µM (inactive) | > 100 µM (inactive) | > 100 µM (inactive) | > 100 µM (inactive) | > 100 µM (inactive) | > 100 µM (inactive) | > 100 µM (inactive) | > 100 µM (inactive) | > 100 µM (inactive) | > 100 µM (inactive) | > 100 µM (inactive) | > 100 µM (inactive) | > 100 µM (inactive) | > 100 µM (inactive) | > 100 µM (inactive) | > 100 µM (inactive) | > 100 µM (inactive) | > 100 µM (inactive) | > 100 µM (inactive) | > 100 µM (inactive)
Cc1c(CN2CCOCC2)c(CN2CCOCC2)c(C)n1-c1ccc(Cl)cn1 | > 100 µM (inactive) | > 100 µM (inactive) | > 100 µM (inactive) | > 100 µM (inactive) | > 100 µM (inactive) | > 100 µM (inactive) | > 100 µM (inactive) | > 100 µM (inactive) | > 100 µM (inactive) | > 100 µM (inactive) | > 100 µM (inactive) | > 100 µM (inactive) | > 100 µM (inactive) | > 100 µM (inactive) | > 100 µM (inactive) | > 100 µM (inactive) | > 100 µM (inactive) | > 100 µM (inactive) | > 100 µM (inactive) | > 100 µM (inactive)
Oc1cc(Br)cc2cccnc12 | 2.56 µM (inactive) | 1.29 µM (inactive) | 2.1 µM (inactive) | 1.52 µM (inactive) | 1.58 µM (inactive) | 2.58 µM (inactive) | 4.7 µM (inactive) | 9.91 µM (inactive) | 9.51 µM (inactive) | 2.52 µM (inactive) | 31.5 µM (inactive) | 3.59 µM (inactive) | 1.7 µM (inactive) | 1.92 µM (inactive) | 2.09 µM (inactive) | 17.3 µM (inactive) | 1.67 µM (inactive) | 0.56 µM (active) | 8.41 µM (inactive) | 1.71 µM (inactive)
C=C1C(=O)O[C@H]2C/C(C)=C/CC[C@]3(C)CCC[C@](C)(CC[C@@H]12)O3 | 7.71 µM (inactive) | 7.64 µM (inactive) | 12.7 µM (inactive) | 16.6 µM (inactive) | 8.97 µM (inactive) | 11.3 µM (inactive) | 8.43 µM (inactive) | 15.2 µM (inactive) | 5.77 µM (inactive) | 13.3 µM (inactive) | 8.38 µM (inactive) | 9.71 µM (inactive) | 8.69 µM (inactive) | 8.69 µM (inactive) | 9.04 µM (inactive) | 7.52 µM (inactive) | 21.9 µM (inactive) | 4.61 µM (inactive) | 11.9 µM (inactive) | 6.59 µM (inactive)
CC(C)(C)OC(=O)N/C=C1\C(=O)Oc2ccccc2C1=O | 38.5 µM (inactive) | 40.6 µM (inactive) | 24.5 µM (inactive) | 39.6 µM (inactive) | 19.8 µM (inactive) | 42.4 µM (inactive) | 37.9 µM (inactive) | 8.67 µM (inactive) | 34.6 µM (inactive) | 21.8 µM (inactive) | 14.6 µM (inactive) | 24 µM (inactive) | 13.9 µM (inactive) | 38.4 µM (inactive) | 47.6 µM (inactive) | 45.1 µM (inactive) | 38.5 µM (inactive) | > 100 µM (inactive) | 20.7 µM (inactive) | 42.5 µM (inactive)
CNC(Cc1ccccc1)c1cccc(OC)c1O (stereo not given) | > 100 µM (inactive) | > 100 µM (inactive) | > 100 µM (inactive) | > 100 µM (inactive) | > 100 µM (inactive) | > 100 µM (inactive) | > 100 µM (inactive) | > 100 µM (inactive) | > 100 µM (inactive) | > 100 µM (inactive) | > 100 µM (inactive) | 5 µM (inactive) | > 100 µM (inactive) | > 100 µM (inactive) | 92.9 µM (inactive) | > 100 µM (inactive) | > 100 µM (inactive) | > 100 µM (inactive) | > 100 µM (inactive) | > 100 µM (inactive)
CCOC(=O)C(=C(SC)SC)c1nn2c(=O)cc(C)nc2s1 | 21 µM (inactive) | 23.8 µM (inactive) | 33.1 µM (inactive) | 49.5 µM (inactive) | 23.6 µM (inactive) | 32.9 µM (inactive) | 33 µM (inactive) | 16.5 µM (inactive) | 19.1 µM (inactive) | 27.9 µM (inactive) | 23.4 µM (inactive) | 17 µM (inactive) | 43.9 µM (inactive) | 21 µM (inactive) | 24.3 µM (inactive) | 17.1 µM (inactive) | 71.8 µM (inactive) | 24.4 µM (inactive) | 21.4 µM (inactive) | 20.9 µM (inactive)
O=C(O)C(NCc1ccccc1)C(NCc1ccccc1)C(=O)O (stereo not given) | > 100 µM (inactive) | > 100 µM (inactive) | > 100 µM (inactive) | > 100 µM (inactive) | > 100 µM (inactive) | > 100 µM (inactive) | > 100 µM (inactive) | > 100 µM (inactive) | > 100 µM (inactive) | > 100 µM (inactive) | > 100 µM (inactive) | > 100 µM (inactive) | > 100 µM (inactive) | > 100 µM (inactive) | > 100 µM (inactive) | > 100 µM (inactive) | > 100 µM (inactive) | > 100 µM (inactive) | > 100 µM (inactive) | > 100 µM (inactive)
CC1(/C=C/CCSc2ccccc2)CC(=O)C2CC1C2(C)C (stereo not given) | 32.5 µM (inactive) | 22.3 µM (inactive) | 19.1 µM (inactive) | 14.8 µM (inactive) | 14.9 µM (inactive) | 12.1 µM (inactive) | 13.2 µM (inactive) | 44.3 µM (inactive) | 20.2 µM (inactive) | 37.4 µM (inactive) | 14.9 µM (inactive) | 11.2 µM (inactive) | 22.9 µM (inactive) | 8.04 µM (inactive) | 22.1 µM (inactive) | 25.1 µM (inactive) | 21 µM (inactive) | 3.19 µM (inactive) | 24.8 µM (inactive) | 17.8 µM (inactive)
Cn1c2ccccc2c(=O)c2cccc(C(=O)NC(CS)C(=O)O)c21 (stereo not given) | 84.9 µM (inactive) | > 100 µM (inactive) | > 100 µM (inactive) | > 100 µM (inactive) | > 100 µM (inactive) | > 100 µM (inactive) | > 100 µM (inactive) | > 100 µM (inactive) | 81.1 µM (inactive) | 60.8 µM (inactive) | > 100 µM (inactive) | > 100 µM (inactive) | > 100 µM (inactive) | > 100 µM (inactive) | > 100 µM (inactive) | > 100 µM (inactive) | > 100 µM (inactive) | 52.8 µM (inactive) | 40.1 µM (inactive) | > 100 µM (inactive)
CC(C)SC1SCC2C(=O)N(C)C3(CC3C)C(=O)OCC(NC(=O)c3nc4ccccc4cc3O)C(=O)NC(C)C(=O)N(C)C1C(=O)N(C)C1(CC1C)C(=O)OCC(NC(=O)c1nc3ccccc3cc1O)C(=O)NC(C)C(=O)N2C (stereo not given) | < 0.0001 µM (active) | < 0.0001 µM (active) | < 0.0001 µM (active) | < 0.0001 µM (active) | < 0.0001 µM (active) | < 0.0001 µM (active) | < 0.0001 µM (active) | < 0.0001 µM (active) | < 0.0001 µM (active) | < 0.0001 µM (active) | < 0.0001 µM (active) | < 0.0001 µM (active) | < 0.0001 µM (active) | < 0.0001 µM (active) | 0.00298 µM (active) | < 0.0001 µM (active) | < 0.0001 µM (active) | < 0.0001 µM (active) | < 0.0001 µM (active) | < 0.0001 µM (active)
C=C1C(=O)O[C@@H]2/C=C(\C)CC/C=C(/COC(C)=O)C[C@@H](OC(C)=O)[C@@H]12 | 3.94 µM (inactive) | 14.1 µM (inactive) | 11.3 µM (inactive) | 37.4 µM (inactive) | 18.7 µM (inactive) | 13.6 µM (inactive) | 14.8 µM (inactive) | 6.79 µM (inactive) | 5.18 µM (inactive) | 14.9 µM (inactive) | 7.83 µM (inactive) | 11.4 µM (inactive) | 10.4 µM (inactive) | 12.4 µM (inactive) | 11.1 µM (inactive) | 8.99 µM (inactive) | 53.7 µM (inactive) | 2.16 µM (inactive) | 19.8 µM (inactive) | 13.4 µM (inactive)
COC1Cc2c(C)c(OC(C)=O)c3cccnc3c2O1 (stereo not given) | 13.5 µM (inactive) | 15.1 µM (inactive) | 18.5 µM (inactive) | 17.3 µM (inactive) | 37.2 µM (inactive) | 20.6 µM (inactive) | 36.6 µM (inactive) | 17.3 µM (inactive) | 18.2 µM (inactive) | > 100 µM (inactive) | > 100 µM (inactive) | 24.1 µM (inactive) | 30.3 µM (inactive) | 14.7 µM (inactive) | 15.4 µM (inactive) | 24.7 µM (inactive) | 32.4 µM (inactive) | 15.6 µM (inactive) | 39 µM (inactive) | 13.3 µM (inactive)
CCOC(=O)N1CCN(c2nc(C)n(-c3ccccc3)c(=S)c2C#N)CC1 | > 63.4 µM (inactive) | 50.2 µM (inactive) | > 100 µM (inactive) | 97.9 µM (inactive) | 75.3 µM (inactive) | > 54 µM (inactive) | > 83.8 µM (inactive) | > 90.4 µM (inactive) | 42.8 µM (inactive) | 23.4 µM (inactive) | > 81.1 µM (inactive) | > 100 µM (inactive) | 34.3 µM (inactive) | > 43.6 µM (inactive) | > 82.2 µM (inactive) | 61 µM (inactive) | > 66.4 µM (inactive) | > 100 µM (inactive) | > 61.8 µM (inactive) | 32.4 µM (inactive)
